43 compounds from patent US20050148627A1, “Benzopyran compounds for use in the treatment and prevention of inflammation related conditions” (priority 2003, published 2005) can be followed below.

The test deals with COX-1 (Homo sapiens, UniProt P23219). The test is described as follows: biochemical.

Values joined by “and” are separate entries in the source; they are usually repeats but may differ in a detail not shown here. Equal entries are not always repeated.

Chain of COX-1 (P23219 24-599): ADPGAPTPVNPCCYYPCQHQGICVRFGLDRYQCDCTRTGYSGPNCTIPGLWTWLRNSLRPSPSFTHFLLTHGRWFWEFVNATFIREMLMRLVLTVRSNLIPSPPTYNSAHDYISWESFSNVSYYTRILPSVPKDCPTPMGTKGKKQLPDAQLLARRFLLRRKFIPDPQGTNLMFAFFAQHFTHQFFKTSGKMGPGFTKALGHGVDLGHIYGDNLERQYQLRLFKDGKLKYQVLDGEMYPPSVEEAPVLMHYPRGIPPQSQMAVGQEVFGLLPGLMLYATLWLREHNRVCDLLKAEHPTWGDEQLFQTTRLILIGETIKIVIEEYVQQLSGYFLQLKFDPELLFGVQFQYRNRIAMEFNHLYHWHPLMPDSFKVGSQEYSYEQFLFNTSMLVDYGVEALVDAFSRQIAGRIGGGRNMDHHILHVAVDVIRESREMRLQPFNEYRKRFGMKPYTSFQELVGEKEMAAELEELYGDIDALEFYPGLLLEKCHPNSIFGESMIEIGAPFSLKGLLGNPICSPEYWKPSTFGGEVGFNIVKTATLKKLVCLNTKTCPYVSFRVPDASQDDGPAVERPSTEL

The compound `CCCc1cc2c(cc1Cc1ccccc1)OC(C(F)(F)F)C(C(=O)O)=C2` (stereo not shown) [Example 42c, 7-benzyl-6-propyl-2-(trifluoromethyl)-2H-chromene-3-carboxylic acid] showed an IC50 of over 100 µM.
The same measure for `CCc1ccc2c(c1)C=C(C(=O)O)[C@@H](C(F)(F)F)O2` (single isomer, unassigned) [Example 34b]: 57.9 µM and 35.5 µM; for `CNc1c(Cl)cc2c(c1Cl)OC(C(F)(F)F)C(C(=O)O)=C2` (stereo not shown) [Example 38b, 6,8-dichloro-7-(methylamino)-2-(trifluoromethyl)-2H-chromene-3-carboxylic acid]: over 100 µM; for `CC#Cc1cc(OC(F)(F)F)cc2c1OC(C(F)(F)F)C(C(=O)O)=C2` (stereo not shown) [Example 21d, 8-prop-1-ynyl-6-(trifluoromethoxy)-2-(trifluoromethyl)-2H-chromene-3-carboxylic acid]: 0.182 µM.
As to `CC(C)(C)Oc1ccc2c(c1)OC(C(F)(F)F)C(C(=O)O)=C2` (stereo not shown) [Example 5b, 7-tert-butoxy-2-(trifluoromethyl)-2H-chromene-3-carboxylic acid], the IC50 was over 500 µM.
In turn, `CC(C)(C=O)c1ccc2c(c1)OC(C(F)(F)F)C(C(=O)O)=C2` (stereo not shown) [Example 114, 7-(1,1-dimethyl-2-oxoethyl)-2-(trifluoromethyl)-2H-chromene-3-carboxylic acid] displayed a 50% inhibitory concentration (IC50) of 63.9 µM.
With `Cc1ccc(Cc2cc3c(cc2Cl)C=C(C(=O)O)C(C(F)(F)F)O3)cc1Cl` (stereo not shown) [Example 9y, 6-chloro-7-(3-chloro-4-methylbenzyl)-2-(trifluoromethyl)-2H-chromene-3-carboxylic acid], the half-maximal inhibitory concentration (IC50) amounted to 4.69 µM.
Turning to `O=C(O)C1=Cc2cc(Cl)c(Cc3ccc(F)c(F)c3)cc2OC1C(F)(F)F` (stereo not shown) [Example 9z, 6-chloro-7-(3,4-difluorobenzyl)-2-(trifluoromethyl)-2H-chromene-3-carboxylic acid], it took 27.4 µM to reach half-maximal inhibition (IC50).
As to `Cc1c(OCC(C)C)c(Cl)cc2c1OC(C(F)(F)F)C(C(=O)O)=C2` (stereo not shown) [Example 3e, 6-chloro-7-isobutoxy-8-methyl-2-(trifluoromethyl)-2H-chromene-3-carboxylic acid], the IC50 was under 0.137 µM.
Take `O=C(O)C1=Cc2c(cc(Cc3ccccc3)c(Cl)c2Cl)OC1C(F)(F)F` (stereo not shown) [Example 13, 7-benzyl-5,6-dichloro-2-(trifluoromethyl)-2H-chromene-3-carboxylic acid]: the IC50 was 4.18 µM and 2.79 µM.
The same measure for `Cc1cc(C)c2c(c1)C=C(C(=O)O)C(C(F)(F)F)O2` (racemic) [Example 32a, 6,8-dimethyl-2-(trifluoromethyl)-2H-chromene-3-carboxylic acid]: > 100 µM and 185 µM and 204 µM and 165 µM and 128 µM; for `O=C(O)C1=Cc2cc(-c3ccc(F)cc3)ccc2NC1C(F)(F)F` (stereo not shown) [Example 48, 6-(4-fluorophenyl)-2-(trifluoromethyl)-1,2-dihydroquinoline-3-carboxylic acid]: 42.7 µM; for `COc1cc(Cl)c(Cl)c2c1OC(C(F)(F)F)C(C(=O)O)=C2` (stereo not shown) [Example 23e, 5,6-dichloro-8-methoxy-2-(trifluoromethyl)-2H-chromene-3-carboxylic acid]: 0.471 µM and < 0.132 µM.
In the case of `CCc1cc(OC(F)(F)F)cc2c1O[C@@H](C(F)(F)F)C(C(=O)O)=C2` (single isomer, unassigned) [Example 21l], the IC50 was > 100 µM and 115 µM and 49.6 µM.
To `Cc1c(C)c2c(c(C)c1Cl)C=C(C(=O)O)C(C(F)(F)F)O2` (stereo not shown) [Example 104] belongs 6.75 µM and 12.1 µM; to `CCCCSc1cc2c(cc1Cl)C=C(C(=O)O)C(C(F)(F)F)O2` (stereo not shown) [Example 7f, 7-(butylthio)-6-chloro-2-(trifluoromethyl)-2H-chromene-3-carboxylic acid], 70.8 µM.
The same measure for `Cc1c(OCC(C)(C)C)c(Cl)cc2c1OC(C(F)(F)F)C(C(=O)O)=C2` (stereo not shown) [Example 3g, 6-chloro-8-methyl-7-(neopentyloxy)-2-(trifluoromethyl)-2H-chromene-3-carboxylic acid]: 74.4 µM and 81.2 µM; for `CCOc1cc(C)cc2c1OC(C(F)(F)F)C(C(=O)O)=C2` (stereo not shown) [Example 31, 8-ethoxy-6-methyl-2-(trifluoromethyl)-2H-chromene-3-carboxylic acid]: over 500 µM; for `Cc1cc(Br)c2c(c1)C=C(C(=O)O)C(C(F)(F)F)N2` (stereo not shown) [Example 46, 8-Bromo-6-methyl-2-(trifluoromethyl)-1,2-dihydroquinoline-3-carboxylic acid]: over 100 µM.
The same measure for `CC(C)Cc1cc(OC(F)(F)F)cc2c1OC(C(F)(F)F)C(C(=O)O)=C2` (stereo not shown) [Example 21h, 8-isobutyl-6-(trifluoromethoxy)-2-(trifluoromethyl)-2H-chromene-3-carboxylic acid]: > 100 µM and 217 µM.
As to `Cc1c(Cl)cc(C(C)C)c2c1C=C(C(=O)O)C(C(F)(F)F)O2` (stereo not shown) [Example 6, 6-chloro-8-isopropyl-5-methyl-2-(trifluoromethyl)-2H-chromene-3-carboxylic acid], the IC50 is > 100 µM and 188 µM and 194 µM.
For the compound `CCCCc1cc2c(cc1Cc1ccccc1)OC(C(F)(F)F)C(C(=O)O)=C2` (stereo not shown) [Example 42d, 7-benzyl-6-butyl-2-(trifluoromethyl)-2H-chromene-3-carboxylic acid], the IC50 turned out to be 58.3 µM.
For the compound `COc1cc2c(cc1Cl)C=C(C(=O)O)C(C(F)(F)F)O2` (stereo not shown) [Example 2i, 6-chloro-7-methoxy-2-(trifluoromethyl)-2H-chromene-3-carboxylic acid], the IC50 is > 100 µM and 187 µM.
As to `O=C(O)C1=Cc2cc(Cl)c(SCc3ccccc3)cc2OC1C(F)(F)F` (stereo not shown) [Example 7e, 7-(benzylthio)-6-chloro-2-(trifluoromethyl)-2H-chromene-3-carboxylic acid], the IC50 is over 100 µM.
For `Cc1cc2c(c(C)c1Cl)C=C(C(=O)O)[C@H](C(F)(F)F)O2` [Example 101, (2R)-6-chloro-5,7-dimethyl-2-(trifluoromethyl)-2H-chromene-3-carboxylic acid], the IC50 is > 100 µM and 430 µM and > 500 µM.
To `O=C(O)C1=Cc2cc(Cl)c(Cc3ccc(Cl)cc3)cc2OC1C(F)(F)F` (stereo not shown) [Example 9o, 6-chloro-7-(4-chlorobenzyl)-2-(trifluoromethyl)-2H-chromene-3-carboxylic] belongs 9.67 µM and 12.1 µM; to `CCN(C)c1cc2c(cc1Cl)C=C(C(=O)O)C(C(F)(F)F)O2` (stereo not shown) [Example 8f, 6-chloro-7-[ethyl(methyl)amino]-2-(trifluoromethyl)-2H-chromene-3-carboxylic acid], over 100 µM; to `CCCOc1c(Cl)c(Cl)c(Cl)c2c1OC(C(F)(F)F)C(C(=O)O)=C2` (stereo not shown) [Example 28a, 5,6,7-trichloro-8-propoxy-2-(trifluoromethyl)-2H-chromene-3-carboxylic acid], 43.6 µM and 41.3 µM.
The same measure for `Cc1cc(Cl)ccc1Cc1cc2c(cc1Cl)C=C(C(=O)O)C(C(F)(F)F)O2` (stereo not shown) [Example 9p, 6-chloro-7-(4-chloro-2-methylbenzyl)-2-(trifluoromethyl)-2H-chromene-3-carboxylic acid]: 1.51 µM.
To `CC(C)(C)CCc1cc2c(cc1Cl)C=C(C(=O)O)C(C(F)(F)F)O2` (stereo not shown) [Example 9b, 6-chloro-7-(3,3-dimethylbutyl)-2-(trifluoromethyl)-2H-chromene-3-carboxylic acid] belongs 19 µM and 17.9 µM; to `O=C(O)C1=Cc2cc(OC(F)(F)F)cc(CCc3ccccc3)c2OC1C(F)(F)F` (stereo not shown) [Example 21o, 8-(2-phenylethyl)-6-(trifluoromethoxy)-2-(trifluoromethyl)-2H-chromene-3-carboxylic acid], 54.8 µM and 68.2 µM.
Take `CCCC(C)(C)c1cc2c(cc1Cl)C=C(C(=O)O)C(C(F)(F)F)O2` (stereo not shown) [Example 111, 6-chloro-7-(1,1-dimethylbutyl)-2-(trifluoromethyl)-2H-chromene-3-carboxylic acid]: the half-inhibitory concentration (IC50) was 9.16 µM and 9.17 µM.
Consider `C=C(C)C#Cc1cc(Cl)cc2c1OC(C(F)(F)F)C(C(=O)O)=C2` (stereo not shown) [Example 36, 6-chloro-8-(3-methylbut-3-en-1-ynyl)-2-(trifluoromethyl)-2H-chromene-3-carboxylic acid], for which the half-maximal inhibitory concentration (IC50) was 78.5 µM and 52.3 µM.
The same measure for `CCCCN(CC)c1cc2c(cc1Cl)C=C(C(=O)O)C(C(F)(F)F)O2` (stereo not shown) [Example 8h, 7-[butyl(ethyl)amino]-6-chloro-2-(trifluoromethyl)-2H-chromene-3-carboxylic acid]: over 100 µM; for `CCc1cc(OC(F)(F)F)cc2c1O[C@H](C(F)(F)F)C(C(=O)O)=C2` (single isomer, unassigned) [Example 21k]: 23.4 µM and 27 µM and 9.26 µM and 11 µM.
The same measure for `O=C(O)C1=Cc2cc(OCc3ccccc3)cc(Cl)c2OC1C(F)(F)F` (stereo not shown) [Example 17d, 6-(benzyloxy)-8-chloro-2-(trifluoromethyl)-2H-chromene-3-carboxylic acid]: 0.365 µM and < 0.137 µM; for `CCC#Cc1cc(OC(F)(F)F)cc2c1OC(C(F)(F)F)C(C(=O)O)=C2` (stereo not shown) [Example 21q, 8-but-1-ynyl-6-(trifluoromethoxy)-2-(trifluoromethyl)-2H-chromene-3-carboxylic acid]: 5.71 µM; for `O=C(O)C1=Cc2cc(Cl)c(OCC3CCCC3)cc2OC1C(F)(F)F` (stereo not shown) [Example 2d, 6-chloro-7-(cyclopentylmethoxy)-2-(trifluoromethyl)-2H-chromene-3-carboxylic acid]: 44.3 µM.
To `Cc1cc(Cl)cc2c1O[C@H](C(F)(F)F)C(C(=O)O)=C2` (single isomer, unassigned) [Example 21t] belongs 32.3 µM and 7.18 µM and 6.42 µM and 8.06 µM and 18.4 µM.
With `COc1ccc(Cl)c2c1OC(C(F)(F)F)C(C(=O)O)=C2` (stereo not shown) [Example 23d, 5-chloro-8-methoxy-2-(trifluoromethyl)-2H-chromene-3-carboxylic acid], the 50% inhibitory concentration (IC50) was over 500 µM.
Take `CCCCC(C)(C)c1cc2c(cc1Cl)C=C(C(=O)O)C(C(F)(F)F)O2` (stereo not shown) [Example 110, 6-chloro-7-(1,1-dimethylpentyl)-2-(trifluoromethyl)-2H-chromene-3-carboxylic acid]: the IC50 was 16.1 µM and 13.1 µM.
The same measure for `O=C(O)C1=Cc2cc(Cl)c(CCC3CCCCC3)cc2OC1C(F)(F)F` (stereo not shown) [Example 9i, 6-chloro-7-(2-cyclohexylethyl)-2-(trifluoromethyl)-2H-chromene-3-carboxylic acid]: 12.7 µM and 12.5 µM; for `COc1cc2c(c(Cl)c1Cl)OC(C(F)(F)F)C(C(=O)O)=C2` (stereo not shown) [Example 19, 7,8-dichloro-6-methoxy-2-(trifluoromethyl)-2H-chromene-3-carboxylic acid]: 82.1 µM and 34.7 µM.

In general, IC50 refers to the midpoint of a concentration-inhibition curve. A high value points to weaker potency in that assay.
